The text below walks through data of patent US20200030202A1, “TWO-STEP TREATMENT FOR DESQUAMATION OF SKIN” (L'OREAL, priority 2018, published 2020).

The structures appear in SMILES notation.

This test concerns isolated human stratum corneum (SC). The experiment in a line: DSC lipid disorganization (shift of melting transition temperatures) of treated stratum corneum. The following applies: 15 minutes per treatment, 75% RH, RT.

Experimental: Various compositions (alkaline versus acidic) and treatment protocols were tested and compared to determine which compositions and protocols produced the greatest degree of lipid disorganization, which is a common method for estimating the desquamation efficacy. All DSC experiments were performed on isolated human stratum corneum (SC). The SC was prepared using a standard protocol. Human abdominal skin remaining from plastic surgery was obtained in frozen form. Subcutaneous fat was removed and the dermis was separated from epidermis by plunging the skin into hot water (56° C.) for 1-2 min. The remaining viable epidermis was removed by tryptic digestion at 37° C. overnight. The SC was dried and stored at room temperature and ambient humidity. […]
The degree of lipid disorganization following treatment can be conveniently monitored by the shifts of the melting transition temperatures measured by Differential Scanning Calorimetry (DSC). […]
The maxima of the endothermic peaks corresponding to lipid phase transitions are determined using dedicated software (TA Universal Analysis). The peak position and the transition enthalpy are determined with respect to a manually defined linear baseline. […] The shifts of the melting peak positions (ΔTm(T2) and ΔTm(T3)) are calculated with respect to reference thermogrammes obtained with untreated or vehicle-treated samples. […]

`O=C(O)CO` [70% GA, glycolic acid]: the ΔT is recorded as −4.6 (Example 3, ΔTeffective=0.7·ΔTm(T2)+0.3ΔTm(T3) vs untreated or vehicle-treated SC, 0.1 gram, decrease of 2° C. considered significant) and −7.1 (Example 4, same manner as Example 3, different alkaline agents).
